Broadly, the IC50 is the concentration at which inhibition is half-maximal. The term GI50 denotes the concentration at which growth is held to half of that of the control.

Each structure is given as a SMILES string.

Results on 23 compounds are retold here after ChEMBL document CHEMBL4390709, “Design, synthesis and biological evaluation of benzimidazole derivatives as novel human Pin1 inhibitors” (Bioorg Med Chem Lett, 2019).

Assay [1] deals with Peptidyl-prolyl cis-trans isomerase NIMA-interacting 1 (Homo sapiens, UniProt Q13526). The assay can be described thus: Inhibition of recombinant human Pin1 (Met1 to Glu163 residues) expressed in Escherichia coli using Suc-Ala-Glu-cis-Pro-Phe-4-nitroanilide as substrate preincubated for 30 mins followed by substrate addition and measured for 90 secs by protease-coupled assay.

Assay [2] concerns PC-3. The assay can be described thus: Cell cycle arrest in human PC3 cells assessed as increase in accumulation at G0/G1-phase measured after 24 hrs by propidium iodide staining based flow cytometry. The class given is functional. Background: In flow cytometry, cells or beads pass a laser one at a time.
Assay [3] deals with PC-3. Put plainly: Cell cycle arrest in human PC3 cells assessed as accumulation at G0/G1-phase at 10 uM measured after 24 hrs by propidium iodide staining based flow cytometry (reference value: 54.26%). The class given is functional.
Assay [4] relates to PC-3. The assay can be described thus: Cell cycle arrest in human PC3 cells assessed as accumulation at G2/M-phase at 2.5 uM measured after 24 hrs by propidium iodide staining based flow cytometry (reference value: 28.31%). The class given is functional.
The subject of assay [5] is PC-3. Put plainly: Cell cycle arrest in human PC3 cells assessed as accumulation at G2/M-phase at 10 uM measured after 24 hrs by propidium iodide staining based flow cytometry (reference value: 28.31%). The class given is functional.
Assay [6] has as its system PC-3. Put plainly: Cell cycle arrest in human PC3 cells assessed as accumulation at subG1-phase at 2.5 uM measured after 24 hrs by propidium iodide staining based flow cytometry (reference value: 0.65%). The class given is functional.
The subject of assay [7] is PC-3. The assay can be described thus: Cell cycle arrest in human PC3 cells assessed as accumulation at subG1-phase at 10 uM measured after 24 hrs by propidium iodide staining based flow cytometry (reference value: 0.65%). The class given is functional.
In assay [8] the test system is PC-3. Put plainly: Cell cycle arrest in human PC3 cells assessed as accumulation at subG1-phase at 5 uM measured after 24 hrs by propidium iodide staining based flow cytometry (reference value: 0.65%). The class given is functional.
Assay [9] relates to PC-3. The assay can be described thus: Cell cycle arrest in human PC3 cells assessed as accumulation at G0/G1-phase at 2.5 uM measured after 24 hrs by propidium iodide staining based flow cytometry (reference value: 54.26%). The class given is functional.
Assay [10] has as its system PC-3. Put plainly: Cell cycle arrest in human PC3 cells assessed as accumulation at G2/M-phase at 5 uM measured after 24 hrs by propidium iodide staining based flow cytometry (reference value: 28.31%). The class given is functional.
The subject of assay [11] is PC-3. The assay can be described thus: Cell cycle arrest in human PC3 cells assessed as accumulation at G0/G1-phase at 5 uM measured after 24 hrs by propidium iodide staining based flow cytometry (reference value: 54.26%). The class given is functional.
In assay [12] the test system is PC-3. Put plainly: Antiproliferative activity against human PC3 cells measured after 96 hrs by MTT assay. The class given is functional. The settings on record: PC-3, 96 h. (In general: Tetrazolium dyes change colour on reduction, which living cells bring about.)

Peptidyl-prolyl cis-trans isomerase NIMA-interacting 1, sequence (Q13526 whole entry): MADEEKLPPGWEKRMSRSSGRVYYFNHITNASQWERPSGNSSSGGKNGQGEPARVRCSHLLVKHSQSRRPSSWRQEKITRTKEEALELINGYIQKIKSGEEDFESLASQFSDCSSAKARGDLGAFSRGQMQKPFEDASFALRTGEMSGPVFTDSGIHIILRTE

In the case of `CS(=O)(=O)NC(=O)c1ccc(-c2nc3ccccc3n2CCCOc2cccc3ccccc23)cc1`, the IC50 in assay [1] worked out at 7.83 µM.
The same measure, in the same setting: for `Cc1ccccc1NC(=O)CCn1c(-c2ccc(C(=O)O)cc2)nc2ccccc21` the value was 7.27 µM.
The same measure, in the same setting: for `O=C(CCn1c(-c2ccc(C(=O)O)cc2)nc2ccccc21)Oc1cccc2ccccc12` the value was 1.87 µM; for `O=C(CCn1c(-c2ccc(C(=O)O)cc2)nc2ccccc21)Nc1cccc(C(F)(F)F)c1`, 11.3 µM.
`O=C(O)CCc1nc2ccccc2n1CCC(=O)Nc1ccccc1`: the IC50 in assay [1] worked out at 19.7 µM.
Regarding `Cc1cccc(NC(=O)CCn2c(CCC(=O)O)nc3ccccc32)c1`, the IC50 in assay [1] was found to be 7.56 µM.
Turning to `CC(C)(C)c1ccc(OCCCn2c(-c3ccc(C(=O)O)cc3)nc3ccccc32)cc1`, the IC50 in assay [1] stood at 1.89 µM.
Turning to `O=C(CCn1c(-c2ccc(C(=O)O)cc2)nc2ccccc21)Oc1ccc(Oc2ccccc2)cc1`, the IC50 in [1] was 1.02 µM.
`Cc1cc(OC(=O)CCn2c(-c3ccc(C(=O)O)cc3)nc3ccccc32)cc(C)c1Cl`: the IC50 in assay [1] came out at 0.72 µM.
Turning to `O=C(CCn1c(-c2ccc(C(=O)O)cc2)nc2ccccc21)Nc1cccc([N+](=O)[O-])c1`, the IC50 in assay [1] is 13.6 µM.
For `O=C(NS(=O)(=O)c1ccccc1)c1ccc(-c2nc3ccccc3n2CCCOc2cccc3ccccc23)cc1`, the Activity entry in the assay with PC-3 [2] was “Dose-dependent effect”; in the assay with PC-3 [3], 64.24%; in the assay with PC-3 [4] it was 29.01%; with PC-3 [5], 27.2%; in the assay with PC-3 [6], 0.52%; in the assay on PC-3 [7] it was 0.37%. Moreover, the Activity with PC-3 [8] is on record as 0.49%; in the assay with PC-3 [9], 58.33%; with PC-3 [10], 27.86%; in the assay on PC-3 [11] it was 62.46%. For the same compound, the IC50 in assay [1] was 1 µM. Moreover, the GI50 in the assay on PC-3 [12] was 9 µM.
For `COc1cccc(NC(=O)CCn2c(-c3ccc(C(=O)O)cc3)nc3ccccc32)c1`, the IC50 in [1] turned out to be 18.7 µM.
For the compound `Cc1cc(OCCCn2c(-c3ccc(C(=O)O)cc3)nc3ccccc32)cc(C)c1Cl`, the IC50 in assay [1] stood at 0.47 µM.
Consider `Cc1ccccc1NC(=O)CCn1c(CCC(=O)O)nc2ccccc21`, for which, in [1], the IC50 came out at 9.81 µM.
The same measure, in the same setting: for `O=C(O)c1ccc(-c2nc3ccccc3n2CCCOc2ccc(Oc3ccccc3)cc2)cc1` the value was 2.2 µM; for `O=C(CCn1c(-c2ccc(C(=O)O)cc2)nc2ccccc21)Nc1cc(Cl)cc(Cl)c1`, 2.89 µM.
`O=C(NS(=O)(=O)C(F)(F)F)c1ccc(-c2nc3ccccc3n2CCCOc2cccc3ccccc23)cc1`: the IC50 in assay [1] was 2.26 µM.
Same read-out and setting: for `O=C(O)c1ccc(-c2nc3ccccc3n2CCCOc2cccc3ccccc23)cc1` the value was 0.33 µM.
For `O=C(O)c1ccc(-c2nc3ccccc3n2CCC(=O)N(c2ccccc2)c2ccc3ccccc3c2)cc1`, in assay [1], the IC50 worked out at 1.53 µM.
In the case of `COc1cc(NC(=O)CCn2c(-c3ccc(C(=O)O)cc3)nc3ccccc32)cc(OC)c1`, the IC50 in [1] was 3.57 µM.
Same read-out and setting: the figure for `Cc1cccc(NC(=O)CCn2c(-c3ccc(C(=O)O)cc3)nc3ccccc32)c1` is 1.1 µM; for `O=C(O)c1ccc(-c2nc3ccccc3n2CCC(=O)N(Cc2ccccc2)Cc2ccccc2)cc1` it is 5.4 µM.
Turning to `CC(C)(C)c1ccc(OC(=O)CCn2c(-c3ccc(C(=O)O)cc3)nc3ccccc32)cc1`, in assay [1], the IC50 was 13.9 µM.
